Earlier results in US20210069213A1, “COMPOSITION AND METHOD OF TREATMENT FOR DRY A.M.D. (AGE RELATED MACULAR DEGENERATION)” (EYE CO PTY LTD, priority 2018, published 2021).

Key:
[1] = target: T1, mineralocorticoid receptor (Homo sapiens, UniProt P08235); conditions: Table 1; hydrocortisone (cortisol) = 1; cited from earlier work
T1 sequence (P08235 1-984): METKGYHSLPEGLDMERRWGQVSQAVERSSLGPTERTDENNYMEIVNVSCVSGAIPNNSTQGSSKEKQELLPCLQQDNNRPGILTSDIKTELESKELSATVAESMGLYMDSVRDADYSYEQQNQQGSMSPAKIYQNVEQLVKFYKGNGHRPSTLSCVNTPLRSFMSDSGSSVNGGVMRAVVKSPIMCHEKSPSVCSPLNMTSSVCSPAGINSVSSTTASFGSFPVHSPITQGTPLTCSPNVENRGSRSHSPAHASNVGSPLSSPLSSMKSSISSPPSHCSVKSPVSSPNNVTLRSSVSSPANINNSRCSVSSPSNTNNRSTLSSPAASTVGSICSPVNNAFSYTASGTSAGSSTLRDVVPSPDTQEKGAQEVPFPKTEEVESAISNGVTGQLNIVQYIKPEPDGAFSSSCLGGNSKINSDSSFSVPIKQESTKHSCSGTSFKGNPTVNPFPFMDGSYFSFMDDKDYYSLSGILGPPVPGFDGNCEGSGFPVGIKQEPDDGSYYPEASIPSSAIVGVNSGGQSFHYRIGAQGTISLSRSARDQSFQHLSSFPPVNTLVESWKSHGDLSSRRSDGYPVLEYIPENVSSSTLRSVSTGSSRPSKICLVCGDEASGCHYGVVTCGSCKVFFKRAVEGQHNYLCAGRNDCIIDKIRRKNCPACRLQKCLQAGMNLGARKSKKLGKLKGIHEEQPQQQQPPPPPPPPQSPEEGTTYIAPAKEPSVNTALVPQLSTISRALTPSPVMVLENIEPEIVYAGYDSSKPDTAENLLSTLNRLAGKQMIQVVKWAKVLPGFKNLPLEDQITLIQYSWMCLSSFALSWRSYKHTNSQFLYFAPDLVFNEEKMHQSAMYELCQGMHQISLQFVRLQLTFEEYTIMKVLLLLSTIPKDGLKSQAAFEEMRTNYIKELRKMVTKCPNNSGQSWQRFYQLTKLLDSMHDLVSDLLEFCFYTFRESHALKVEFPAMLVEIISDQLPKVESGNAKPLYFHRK

glucocorticoid receptor = target: T2, glucocorticoid receptor (Homo sapiens, UniProt P04150); conditions: cited from earlier work; for GR potency: Table 1, hydrocortisone (cortisol) = 1
T2 sequence (P04150 1-777): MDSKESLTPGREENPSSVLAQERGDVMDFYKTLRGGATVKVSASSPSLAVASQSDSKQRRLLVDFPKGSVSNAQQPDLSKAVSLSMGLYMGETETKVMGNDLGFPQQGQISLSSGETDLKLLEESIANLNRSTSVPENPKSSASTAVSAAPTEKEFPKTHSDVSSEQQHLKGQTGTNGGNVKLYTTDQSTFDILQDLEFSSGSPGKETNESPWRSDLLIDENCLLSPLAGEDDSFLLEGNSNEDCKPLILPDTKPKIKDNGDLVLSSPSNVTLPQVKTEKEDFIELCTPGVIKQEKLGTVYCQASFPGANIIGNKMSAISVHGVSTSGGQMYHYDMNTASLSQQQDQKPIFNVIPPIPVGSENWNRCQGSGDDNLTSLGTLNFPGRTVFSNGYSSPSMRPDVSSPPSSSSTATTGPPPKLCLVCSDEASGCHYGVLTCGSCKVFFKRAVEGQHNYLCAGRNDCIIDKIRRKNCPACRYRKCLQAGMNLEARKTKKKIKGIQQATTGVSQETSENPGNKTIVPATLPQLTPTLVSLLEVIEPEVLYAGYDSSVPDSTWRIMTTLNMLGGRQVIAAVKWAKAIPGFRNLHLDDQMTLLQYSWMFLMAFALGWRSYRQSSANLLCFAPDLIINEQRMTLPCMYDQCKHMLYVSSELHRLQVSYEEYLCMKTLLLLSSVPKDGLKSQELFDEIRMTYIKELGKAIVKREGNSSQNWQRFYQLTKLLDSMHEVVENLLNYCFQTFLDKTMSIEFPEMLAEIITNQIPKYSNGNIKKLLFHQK

[2] = test system: New Zealand albino rabbits; conditions: cited from earlier work

SMILES: C[C@]12CCC(=O)C=C1CC[C@@H]1[C@@H]2[C@@H](O)C[C@]2(C=O)[C@@H](C(=O)CO)CC[C@@H]12 [Aldosterone]
- MR potency [1]: 200-1000
- GR potency (glucocorticoid receptor): 0.3

SMILES: C[C@H]1C[C@H]2[C@@H]3CCC4=CC(=O)C=C[C@]4(C)[C@@]3(Cl)[C@@H](O)C[C@]2(C)[C@@]1(O)C(=O)CO [Beclometasone]
- GR potency, given as dose equivalence (glucocorticoid receptor; equals 14 mg oral prednisone once/day): 8 puffs 4 times a day;

SMILES: C[C@]12CCC(=O)C=C1CC[C@@H]1[C@@H]2C(=O)C[C@@]2(C)[C@H]1CC[C@]2(O)C(=O)CO [Cortisone]
- MR potency [1]: 0.8
- GR potency (glucocorticoid receptor): 0.8

SMILES: CC(=O)OCC(=O)[C@H]1CC[C@H]2[C@@H]3CCC4=CC(=O)CC[C@]4(C)[C@H]3CC[C@]12C [Deoxycorticosterone acetate]
- MR potency [1]: 20
- GR potency (glucocorticoid receptor): 0

SMILES: C[C@]12CCC(=O)C=C1CC[C@@H]1[C@@H]2[C@@H](O)C[C@@]2(C)[C@H]1CC[C@]2(O)C(=O)CO [Hydrocortisone]
- MR potency [1]: 1
- GR potency (glucocorticoid receptor): 1

SMILES: C[C@]12C=CC(=O)C=C1CC[C@@H]1[C@@H]2[C@@H](O)C[C@@]2(C)[C@H]1CC[C@]2(O)C(=O)CO [Prednisolone]
- MR potency [1]: 0.8
- GR potency (glucocorticoid receptor): 4

SMILES: C[C@]12C=CC(=O)C=C1CC[C@@H]1[C@@H]2C(=O)C[C@@]2(C)[C@H]1CC[C@]2(O)C(=O)CO [Prednisone]
- MR potency [1]: 0.8

SMILES: C[C@]12C=CC(=O)C=C1CC[C@H]1[C@@H]3C[C@@H](O)[C@](O)(C(=O)CO)[C@@]3(C)C[C@H](O)[C@@]12F [Triamcinolone]
- MR potency [1]: 0
- GR potency (glucocorticoid receptor): 5

SMILES: C[C@]12CCC(=O)C=C1CC[C@H]1[C@@H]3CC[C@](O)(C(=O)CO)[C@@]3(C)C[C@H](O)[C@@]12F [fludrocortisone, 9-alpha fluorohydrocortisone]
- ERG change in the other groups ([2]; intravitreal 2 mg, 1 mg, 400 μg/0.1 ml, two weeks after injection): no significant decrease in ERG
- intravitreal (vitreous) haemorrhage ([2]; intravitreal 4 mg/0.1 mL): one eye of this group had a vitreous hemorrhage
- ERG change ([2]; intravitreal 4 mg/0.1 ml, two weeks after injection): One eye in the 4 mg/0.1 ml fludrocortisone group exhibited significant decreases in ERG
- signs of retinal toxicity on slit-lamp examination, indirect ophthalmoscopy, or light microscopy ([2]; rabbit, in vivo): no signs of retinal toxicity
